Experimental findings from ChEMBL document CHEMBL1155632, “Sesquiterpenes from the basidiomycete Omphalotus illudens” (J Nat Prod, 2000) are described below.

One data set concerns Bacillus subtilis. Nature of the data set: Antibacterial activity against Bacillus subtilis ATCC 6633 at 10 ug/disk. It counts as functional, organism-based.
Another data set has as its system Escherichia coli. Nature of the data set: Genotoxicity against Escherichia coli PQ37 at 50 ug/disk. In kind it is toxicity, organism-based.
A further data set concerns Staphylococcus aureus. Kind of data set: Antibacterial activity against Staphylococcus aureus ATCC 29213. In kind it is functional, organism-based.
Another data set has as its system Pseudomonas aeruginosa. Kind of data set: Antibacterial activity against Pseudomonas aeruginosa ATCC 27853. It counts as functional, organism-based.
Another data set concerns Candida albicans. Kind of data set: Antifungal activity against Candida albicans ATCC 32354. It counts as functional, organism-based.

Active and inactive are the calls of the source. The rule behind the calls is not given here.

On to `CC1(C)C[C@H]2[C@@H](CC[C@@]2(C)O)[C@]2(C)CC2[C@H]1OC(=O)c1cc([N+](=O)[O-])cc([N+](=O)[O-])c1` (stereo not given in full), for which the result in the data set with Bacillus subtilis, with Staphylococcus aureus, with Pseudomonas aeruginosa and in the data set on Candida albicans was inactive. The Activity result in the data set on Escherichia coli is recorded as “Not Active”.

Consider `C/C(C=O)=C1\[C@@H](O)C[C@]1(C)[C@H]1CC(C)(C)C[C@@H]1O` [ILLUDOSIN], for which the outcome with Bacillus subtilis was Active. In the data set on Escherichia coli, the outcome was Active. Besides, the outcome in the data set with Staphylococcus aureus, in the data set with Pseudomonas aeruginosa and in the data set with Candida albicans was inactive.

As for `C/C(C=O)=C1\C(=O)C[C@]1(C)[C@H]1CC(C)(C)CC1=O`, the result in the data set on Bacillus subtilis, with Staphylococcus aureus, in the data set with Pseudomonas aeruginosa and in the data set with Candida albicans was inactive. In the data set on Escherichia coli, the Activity entry is “Not Active”.

Turning to `C/C(CO)=C1\[C@@H](O)C[C@]1(C)[C@H]1CC(C)(C)C[C@@H]1O`, the result in the data set with Bacillus subtilis, in the data set with Staphylococcus aureus, in the data set on Pseudomonas aeruginosa and with Candida albicans was inactive. Moreover, the Activity entry in the data set with Escherichia coli is “Not Active”.
